Experimental data: US20050260555A1, “Chemosensitivity measurement using caspase activity” (Evotec Analytical Systems GmbH, priority 1999, published 2005)
*1 amine or outer side, *2 acyl side, *3 side chain or, on linkers, in order; H or OH if unused. Where a SMILES comes first, the peptide text is derived from it. Bridges are numbered along the chain shown (N, C = ends). Roman numbers before positions name the chains, in order. [ ]: non-standard residue; d: D form. Actinocin(9to1) = Cc1c2oc3c(C)ccc(C(=O)[*:1])c3nc-2c(C(=O)[*:2])c(N)c1=O; NMeV = CN[C@H](C(=O)O)C(C)C; Sar = CNCC(=O)O

What was measured:
Assay type in all cases: cell-based
[1] = tested on: U937 cells; test: Chemosensitivity of U937 cells, accumulated caspase activity; details: cell line U937, FIG. 3; for effectiveness (apoptosis induction) as concentration increases: average from three independent experiments
Experimental: (§1) This object is achieved by a method for determining the chemosensitivity of cells towards at least one substance by measuring the apoptosis induced by said at least one substance, wherein the apoptosis is determined from the accumulated caspase activity of a sample comprising cells and a medium by adding said at least one substance to the sample followed by incubation, and measuring the accumulated caspase activity in the sample upon disruption of the cells without previously separating off the cells. In particular, the method according to the invention permits the use of substrates which are hardly cell-permeating or not cell-permeating at all.
(§2) It is essential that the accumulated caspase activity is measured. In this approach, cells, e.g., tumor cells of a patient, are incubated with at least one substance (e.g., cytostatic agent) for an extended period of time so that all effective pharmaceuticals, even the slowly acting, have had enough time to induce apoptosis. Subsequently, for example, a substrate present in a lysis buffer is added, and after the cell lysis has been effected, the total caspase activity formed, i.e., the accumulated activity, of the cellular suspension is measured. […] The conventionally determined (with a washing step) caspase activity increases at the same rate as the accumulated caspase activity, but decreases when the secondary necrosis begins (see FIG. 1). Thus, the principle of measuring the accumulated caspase activity permits to detect the effect of substances on the cells by a single caspase activity measurement. This test has a low need of cells and can be performed as a routine test by laboratory or technical assistants within a short time. Due to the easy automation, the personnel expenditure for performing the test is low. Since the test can be performed on ELISA reading devices, which are available everywhere, no investment in equipment is necessary. Miniaturization is possible to further reduce the consumption of materials. It could be shown that cells can be kept in culture for some days in less than 10 μl of medium. The reduction of the number of cells per sample compartment from 100 to 1000 per test enables highly parallel analyses of samples with extremely few cells from patients, e.g., from fine needle biopsies. The low need of cells also permits the high throughput screening (HTS) of unknown substances for anti-tumor activity.
The caspase activity of 250 000 Jurkat cells in 100 μl of medium was determined after different incubation times with 1 μg/ml actinomycin D both conventionally and according to the method of accumulated caspase activity according to the invention. Thus, 100 μl of Jurkat cells (2.5×10^6/ml) was incubated in the presence of actinomycin D at 5% CO2 and 37° C. in RPMI medium with 10% FCS and Pen/Strep. After the incubation, the cells were centrifuged by a conventional method and washed with PBS. The pellet was resuspended in 200 μl of lysis buffer, incubated on ice for 10 min and frozen at −20° C. The accumulated caspase activity was determined by mixing 100 μl of the cells incubated with actinomycin D, directly in suspension, with 100 μl of 2× lysis buffer. The lysate was also frozen at −20° C. All lysates were simultaneously thawed, and aminocoumarin-DEVD was added. At room temperature, the release of fluorescent aminocoumarin by caspase was monitored every 5 min over a period of 2 h. From the linear increase of the signal, the slope was calculated as a measure of caspase activity. The spontaneous caspase activities of the Jurkat cells in the absence of actinomycin D, not shown in the Figure, increase with time, but remain lower than 4 min^−1.
The chemosensitivities of U937 and HL60 cells towards the cytostatic agents indicated in FIGS. 3 and 4 were tested in the stated concentration ranges.
The effect of four cytostatic agents on the cell line U937 was tested. Each data point represents the average from three independent experiments.

[2] = tested on: HL60 cells; test: Chemosensitivity of HL60 cells, accumulated caspase activity; details: promyeloic HL60 cells
Experimental: as §1
as §2, with “The reduction of the number of cells per sample compartment from 100 to 1000 per test enables highly parallel analyses of samples with extremely few cells from patients, e.g., from fine needle biopsies. The low need of cells also permits the high throughput screening (HTS) of unknown substances for anti-tumor activity.” left out
The caspase activity of 250 000 Jurkat cells in 100 μl of medium was determined after different incubation times with 1 μg/ml actinomycin D both conventionally and according to the method of accumulated caspase activity according to the invention. […] The accumulated caspase activity was determined by mixing 100 μl of the cells incubated with actinomycin D, directly in suspension, with 100 μl of 2× lysis buffer. […] At room temperature, the release of fluorescent aminocoumarin by caspase was monitored every 5 min over a period of 2 h. From the linear increase of the signal, the slope was calculated as a measure of caspase activity. […]

[3] = tested on: isolated cells from the peripheral blood (PBMNC) of healthy volunteers; test: Chemosensitivity of PBMNC, caspase activity; details: PBMNC of healthy subjects; for concentration by which caspase activity can be induced: average from three independent experiments
Experimental: as §1, §2
For establishing the test for peripheral blood or bone marrow, isolated cells from the peripheral blood (PBMNC) of healthy volunteers were tested first, taking care that acute infections, as frequently encountered in the fall/winter season, could be excluded. FIGS. 5 and 6 illustrate the results of the studies with two cytostatic agents.
As compared to tested leukemia cell lines, the PBMNCs respond later to daunorubicin.

SMILES | maximum inducible caspase activity [1] | effectiveness (apoptosis induction) as concentration increases [1] | maximum inducible caspase activity reached at the highest concentration measured [2] | plateau (unchanging maximum caspase activity) [3] | concentration by which caspase activity can be induced [3] | induced caspase activities (comparison between agents) [2] | response compared to tested leukemia cell lines [3] | concentration at maximum in caspase activity ([2]; apoptosis signal decreases at higher concentrations)
Nc1ccn([C@@H]2O[C@H](CO)[C@@H](O)[C@@H]2O)c(=O)n1 [Ara-C, cytosine arabinoside (Ara-C)] | relatively low | also increases | appears not yet to have reached the maximum caspase activity | not reached for any of the tested PBMNCs | > 200 ng/mL |  |  | 
Cc1c2oc3c(C)ccc(C(=O)N[C@@H]4C(=O)N[C@H](C(C)C)C(=O)N5CCC[C@H]5C(=O)N(C)CC(=O)N(C)[C@@H](C(C)C)C(=O)O[C@@H]4C)c3nc-2c(C(=O)N[C@@H]2C(=O)N[C@H](C(C)C)C(=O)N3CCC[C@H]3C(=O)N(C)CC(=O)N(C)[C@@H](C(C)C)C(=O)O[C@@H]2C)c(N)c1=O [actinomycin D] (I: T[dV]P[Sar][NMeV] / II: T[dV]P[Sar][NMeV]; ester I:1-I:C, II:1-II:C; linker I:N-II:N via Actinocin(9to1)) | highest | also increases |  |  |  | higher caspase activities than Ara-C and prednisolone |  | 
COc1cccc2c1C(=O)c1c(O)c3c(c(O)c1C2=O)C[C@@](O)(C(C)=O)C[C@@H]3O[C@H]1C[C@H](N)[C@H](O)[C@H](C)O1 [daunorubicin] | significantly higher | also increases |  | not reached for the subjects NP1 and NP5 to NP8, and only roughly so for the subjects NP2 to NP4 | > 50 ng/mL | higher caspase activities than Ara-C and prednisolone | respond later | 
C[C@]12C=CC(=O)C=C1CC[C@@H]1[C@@H]2[C@@H](O)C[C@@]2(C)[C@H]1CC[C@]2(O)C(=O)CO [prednisolone] |  | no or but a slight apoptosis induction |  |  |  |  |  | about 700 ng/ml
